The record followed here is ChEMBL document CHEMBL3826884, “Synthesis and biological evaluation of 3-substituted 5-benzylidene-1-methyl-2-thiohydantoins as potent NADPH oxidase (NOX) inhibitors” (Bioorg Med Chem, 2016).

By Ki is commonly meant a measure of affinity in units of concentration, obtained from inhibition or displacement.

Experiment [1] addresses T1, NADPH oxidase 4 (Homo sapiens, UniProt Q9NPH5).
T1 sequence (Q9NPH5 whole entry): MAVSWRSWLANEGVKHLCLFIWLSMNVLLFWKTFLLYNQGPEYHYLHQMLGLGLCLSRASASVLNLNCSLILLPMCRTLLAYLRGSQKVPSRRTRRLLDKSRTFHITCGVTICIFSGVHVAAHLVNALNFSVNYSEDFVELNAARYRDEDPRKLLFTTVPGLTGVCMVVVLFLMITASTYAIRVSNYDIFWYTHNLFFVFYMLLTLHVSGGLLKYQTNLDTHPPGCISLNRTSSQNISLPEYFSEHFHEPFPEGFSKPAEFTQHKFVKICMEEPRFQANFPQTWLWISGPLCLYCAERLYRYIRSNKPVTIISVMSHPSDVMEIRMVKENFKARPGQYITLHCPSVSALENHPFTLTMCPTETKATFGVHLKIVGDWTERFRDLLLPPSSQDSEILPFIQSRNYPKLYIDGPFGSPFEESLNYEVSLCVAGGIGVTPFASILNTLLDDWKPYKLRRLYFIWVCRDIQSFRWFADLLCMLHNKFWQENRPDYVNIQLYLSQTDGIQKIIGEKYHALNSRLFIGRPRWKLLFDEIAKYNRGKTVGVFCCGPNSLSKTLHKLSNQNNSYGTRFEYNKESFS
Put plainly: Inhibition of human NOX4 expressed in Drosophila DUOX knockdown model assessed as decrease in ROS production by lucigenin chemiluminescence assay.

Experiment [2] deals with T2, NADPH oxidase 1 (Homo sapiens, UniProt Q9Y5S8).
T2 sequence (Q9Y5S8 whole entry): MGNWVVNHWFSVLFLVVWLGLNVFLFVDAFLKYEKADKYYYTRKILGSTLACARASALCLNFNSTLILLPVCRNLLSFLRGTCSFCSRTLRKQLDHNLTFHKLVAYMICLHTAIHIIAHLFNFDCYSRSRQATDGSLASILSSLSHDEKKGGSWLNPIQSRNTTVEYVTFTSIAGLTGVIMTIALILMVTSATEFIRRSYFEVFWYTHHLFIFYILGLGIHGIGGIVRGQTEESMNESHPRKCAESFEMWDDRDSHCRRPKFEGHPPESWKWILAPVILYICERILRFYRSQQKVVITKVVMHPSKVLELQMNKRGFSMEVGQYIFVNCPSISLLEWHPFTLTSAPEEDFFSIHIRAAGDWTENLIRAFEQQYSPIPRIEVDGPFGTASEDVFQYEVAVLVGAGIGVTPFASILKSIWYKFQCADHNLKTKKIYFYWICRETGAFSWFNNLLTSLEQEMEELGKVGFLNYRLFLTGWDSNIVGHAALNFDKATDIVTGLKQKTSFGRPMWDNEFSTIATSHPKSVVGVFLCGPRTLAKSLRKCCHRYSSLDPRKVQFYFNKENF
In words: Inhibition of human NOX1 expressed in Drosophila DUOX knockdown model assessed as decrease in ROS production by lucigenin chemiluminescence assay.

The species entered for experiment [3] is Homo sapiens. Put plainly: Selectivity ratio of Ki for human NOX1 expressed in Drosophila DUOX knockdown model to Ki for human NOX4 expressed in Drosophila DUOX knockdown model.

Regarding `CN1C(=S)N(c2cccc(Cl)c2)C(=O)/C1=C/c1ccc(O)cc1O`, the Ki is 33.8 µM in experiment [1] and 34.5 µM in experiment [2].

`CN1C(=S)N(C2CCCCC2)C(=O)/C1=C/c1ccc(N(C)C)cc1`: the Ki stood at 35.6 µM in experiment [1] and 12.3 µM in experiment [2].

As for `Cc1ccc(N2C(=O)/C(=C/c3ccc(O)cc3O)N(C)C2=S)cc1`, the inhibition constant (Ki) was determined as 34.6 µM in experiment [1] and 27.1 µM in experiment [2].

With `CCc1ccc(N2C(=O)/C(=C/c3ccc(N(C)C)cc3)N(C)C2=S)cc1`, the Ki in experiment [1] came out at 2.63 µM; in experiment [2], 4.39 µM.

Consider `Cc1ccc(N2C(=O)/C(=C/c3cccc(O)c3O)N(C)C2=S)cc1`, for which the results for the Ki in experiment [1] and in experiment [2] were 27 µM and 50.3 µM, respectively.

Consider `CN1C(=S)N(c2ccc3c(c2)CCC3)C(=O)/C1=C/c1ccc(O)cc1O`, for which the figures for the Ki in experiment [1] and in experiment [2] were 6.83 µM and 6.58 µM, respectively.

Regarding `CN1C(=S)N(C2CCCCC2)C(=O)/C1=C/c1ccc(O)cc1O`, the figures for the Ki in experiment [1] and in experiment [2] were 37.6 µM and 26 µM, respectively.

With `CN1C(=S)N(C2CCCCC2)C(=O)/C1=C/c1cccc(O)c1O`, the Ki worked out at 6.35 µM in experiment [1] and 7.39 µM in experiment [2].

With `CN1C(=S)N(c2ccccc2)C(=O)/C1=C/c1ccc(O)cc1O`, the Ki in experiment [1] came to 27.7 µM; in experiment [2], 33.8 µM.

With `CN1C(=S)N(c2ccc3c(c2)CCC3)C(=O)/C1=C/c1ccc(N(C)C)cc1`, the figures for the Ki in experiment [1] and in experiment [2] were 13.1 µM and 8.04 µM, respectively.

As to `CN1C(=S)N(c2ccccc2)C(=O)/C1=C/c1ccc(N(C)C)cc1`, the Ratio Ki in experiment [3] turned out to be 2.2. Moreover, the figures for the Ki in experiment [1] and in experiment [2] were 0.88 µM and 1.95 µM, respectively.

Consider `CCc1ccc(N2C(=O)/C(=C/c3cccc(O)c3O)N(C)C2=S)cc1`, for which the values for the Ki in experiment [1] and in experiment [2] were 26.4 µM and 27.9 µM, respectively.

As to `CN1C(=S)N(c2cccc(Cl)c2)C(=O)/C1=C/c1cccc(O)c1O`, the Ki in experiment [1] worked out at 9.31 µM; in experiment [2], 7.65 µM.

Turning to `CCc1ccc(N2C(=O)/C(=C/c3ccc(O)cc3O)N(C)C2=S)cc1`, in experiment [3], the Ratio Ki came to 3.5. Further, the Ki amounted to 2.39 µM in experiment [1] and 8.4 µM in experiment [2].

Take `CN1C(=S)N(c2ccccc2)C(=O)/C1=C/c1cccc(O)c1O`: the Ki in experiment [1] turned out to be 24 µM; in experiment [2], 49.7 µM.

For `CN1C(=S)N(c2ccc3c(c2)CCC3)C(=O)/C1=C/c1cccc(O)c1O`, in experiment [3], the Ratio Ki was 2.8. In addition, the Ki in experiment [1] amounted to 2.36 µM; in experiment [2], 6.63 µM.

Turning to `Cc1ccc(N2C(=O)/C(=C/c3ccc(N(C)C)cc3)N(C)C2=S)cc1`, the figures for the inhibition constant Ki in experiment [1] and in experiment [2] were 2.33 µM and 1.02 µM, respectively.

For `CN1C(=S)N(c2cccc(Cl)c2)C(=O)/C1=C/c1ccc(N(C)C)cc1`, the Ki is 0.84 µM in experiment [1] and 0.35 µM in experiment [2].
